In patent publication US20100222404A1, “INDAZOLE DERIVATIVE DIHYDROCHLORIDE” (ASAHI KASEI PHARMA CORPORATION, priority 2008, published 2010):

Key:
[1] = Test for measuring solubility (Test Example 2, saturated solution by HPLC); assay type: physicochemical; details: room temperature; for solubility thermodynamic at 1 h: thermodynamic from solid, read-out: Saturated solution concentration
Protocol: The “dihydrochloride salt” was precisely weighed in the amounts indicated in Table 2, and 20 ml each of the solvent was added to the weighed samples. The samples were shaken for one hour at room temperature. After it was visually checked that the samples were not completely dissolved, the samples were centrifuged (10° C., 3000 RPM, 20 minutes), and the supernatant was filtered through a Membrane filter, to thereby produce saturated solutions. Each of the saturated solutions was analyzed by HPLC, and the concentration of the saturated solution was calculated from the peak area.

[2] = Blood concentration measurement test (AUC after oral enteric capsule); assay type: in vivo, male beagle dogs; details: for AUC(0-inf): dog, compound 1 free form measured in blood plasma, read-out: AUCinf mean; for AUC(0-inf) / AUCinf CV (coefficient of variation): male beagle dogs, fasting, oral enteric capsule, 1 mg/kg as free form
Protocol: The “monohydrochloride salt” and the “dihydrochloride salt” were respectively filled in an enteric capsule (Eudragit L coat, No. 5) to an amount of administration of 1 mg/kg in terms of the “compound 1” in a free form. The capsules were forcibly orally administered to male beagle dogs (Oriental Yeast Co., Ltd.) under fasting. 0.5, 1, 2, 3, 4, 6, 8, 10 and 24 hours after the administration, about 1 mL of blood was collected from the cephalic vein under non-anesthesia conditions, with a 2.5-mL syringe through which a heparin sodium solution had been passed through in advance (equipped with a 23 G injection needle). The collected blood was cooled in ice, and the blood plasma was separated by a centrifugal operation. After a lapse of 6 hours from the administration, the dogs were fed with a usual amount of food. The concentration of the “compound 1” in a free form in the blood plasma was measured by the LC/MS/MS method in each case, and the AUC was calculated using the Non-Compartment model of WinNonlin software v5.0.1. (in the table, AUCinf means the “AUC obtained when the blood plasma concentration was extrapolated from zero to the infinity”, mean is the “average”, SD is the “standard deviation”, and CV is the “coefficient of variation”.)

[3] = Test for measuring solubility (Test Example 1, saturated solution by HPLC); assay type: physicochemical; details: for solubility thermodynamic at 1 h: thermodynamic from solid, room temperature, read-out: Saturated solution concentration
Protocol: About 50 mg each of the “monohydrochloride salt” and the “dihydrochloride salt” were precisely weighed, and were each suspended in a solvent so as to obtain a concentration of 500 mg/ml, respectively. Each suspension was sonicated for 10 minutes, and then was shaken at room temperature for one hour. Subsequently, each of the supernatant of the suspension was subjected to centrifugal filtration (10° C., 3000 RPM, 20 minutes) using a centrifugal filter (Ultrafree-MC PTFE 0.2 μm, manufactured by Millipore, Inc.), to thereby prepare a saturated solution. Each of the saturated solutions was analyzed by HPLC, and the concentration of the saturated solution was calculated from the peak area.

[4] = aqueous buffer, pH 6.8 Buffer solution (phosphate buffer solution)
[5] = saline or isotonic, Physiological saline, shaken one hour
[6] = simulated gastric fluid, pH 1.2 Buffer solution (1st fluid for dissolution test)

SMILES: Cc1n[nH]c2cc(OCCNC[C@H](O)c3cccc(NS(C)(=O)=O)c3)ccc12.Cl.Cl [dihydrochloride salt, (R)—N-[3-[2-[2-(3-methylindazol-6-yloxy)ethylamino]-1-hydroxyethyl]phenyl]methanesulfonamide dihydrochloride]
- Saturated solution concentration ([1]; Ethanol, 0.1 g in 20 ml): 0.516 mg/mL
- solubility thermodynamic at 1 h ([1]; aqueous buffer, pH 4.0 Buffer solution (0.05 mol/L acetic acid/sodium acetate), 4 g in 20 ml): 147 mg/mL
- solubility thermodynamic at 1 h ([1]; aqueous buffer, pH 6.8 Buffer solution (2nd fluid for dissolution test), 4 g in 20 ml): 156 mg/mL
- solubility thermodynamic at 1 h ([1]; saline or isotonic, Physiological saline, 5 g in 20 ml): 98.8 mg/mL
- solubility thermodynamic at 1 h ([1]; simulated gastric fluid, pH 1.2 Buffer solution (1st fluid for dissolution test), 4 g in 20 ml): 97.8 mg/mL
- solubility thermodynamic at 1 h ([1]; Water, 5 g in 20 ml): 143 mg/mL
- AUC(0-inf) [2]: 1390 ng·h/mL
- Variation of the AUC (CV) compared with the monohydrochloride salt ([2]; dogs, oral administration using enteric capsules): smaller
- AUCinf CV (coefficient of variation) [2]: 29.5%
- solubility thermodynamic at 1 h [3, 4]: 210 mg/mL
- Solubility compared with the monohydrochloride salt ([3]; results of Table 1): significantly higher solubility
- solubility thermodynamic at 1 h [3, 5]: 125 mg/mL
- solubility thermodynamic at 1 h [3, 6]: 128 mg/mL
- solubility thermodynamic at 1 h ([3]; Water, shaken one hour): 189 mg/mL

SMILES: Cc1n[nH]c2cc(OCCNC[C@H](O)c3cccc(NS(C)(=O)=O)c3)ccc12.Cl [monohydrochloride salt, (R)—N-[3-[2-[2-(3-methylindazol-6-yloxy)ethylamino]-1-hydroxyethyl]phenyl]methanesulfonamide hydrochloride, reference compound]
- AUC(0-inf) [2]: 1110 ng·h/mL
- AUCinf CV (coefficient of variation) [2]: 70.0%
- solubility thermodynamic at 1 h [3, 4]: 23.7 mg/mL
- solubility thermodynamic at 1 h [3, 5]: 32.2 mg/mL
- solubility thermodynamic at 1 h [3, 6]: 73.5 mg/mL
- solubility thermodynamic at 1 h ([3]; Water, shaken one hour): 36.7 mg/mL
